In brackets after ≈: the same amount, converted by molar mass.
Assays:
Assay type in all cases: cell-based
M. smegmatis = assay: Growth of M. smegmatis parent and MSH mutant strains in the presence of INH
Experimental: Using the parental strain mc^2155, the Myco504 mutant in mshB that produces 5-10% of normal MSH in exponential growth, and the mutant strain 49 that produces 0% of normal MSH, the effect of 0-30 μg per ml INH upon growth was examined. […] This is seen in FIG. 13 for growth in the presence of 10 μg per ml INH.

[1] = system: mycothiol biosynthesis in M. smegmatis mc^2155; assay: Inhibitor studies with Mycobacterium smegmatis: GlcN-Ins and MSH content by HPLC; conditions: 30 μM, after 12 h
Experimental: (§1) Inhibitor studies with Mycobaterium smagmatis. An exponential culture of M. smegmatis mc^2155 in Middlebrook 7H9 medium containing 0.05% Tween 80 and 1% glucose was used to inoculate a culture in the same medium but with 0.4% glucose to A600=0.05. The inhibitor NTF1836 was added from a stock solution in Me2SO at 0, 10, 20, 30 and 40 μM to duplicate 40 ml aliquots of the culture in 125 ml flasks to produce a final Me2SO content of ≦0.04%. The cells were incubated at 37° C. and 250 rpm. At A600˜0.25 and subsequent doublings in cell density, a volume of culture was removed sufficient to provide analysis of GlcN-Ins and MSH as described above.

[2] = system: Enterococcus faecalis ATCC 29212; assay: MIC by broth dilution assay
[3] = system: MshC within M. tuberculosis; assay: Mycothiol and GlcN-Ins content of M. tuberculosis, day 7
[4] = system: Mycobacterium smegmatis mc^2155 ATCC 700084; assay: MIC by broth dilution assay
M. tuberculosis = assay: Growth of M. tuberculosis in broth culture, 7 days (optical density, plate counts); conditions: for OD600: day 7, starting OD600 0.08
Staphylococcus aureus = assay: MIC by broth dilution assay; conditions: for MIC: n = 3
M. smegmatis mc^2155 = assay: Inhibitor studies with Mycobacterium smegmatis: growth
Experimental: as §1

Which results are given for `NNC(=O)c1ccncc1` [INH, isoniazid]?
growth of strain 49 (0% MSH) (M. smegmatis; 2 μg per ml INH and above): no effect; growth of strain mc^2155 (M. smegmatis; 2 μg per ml INH and above): became inhibited; growth of strain 49 (0% MSH) (M. smegmatis; 10 μg per ml INH): grows at the same rate as in the absence of INH; growth of strain Myco504 (5-10% MSH) (M. smegmatis; 10 μg per ml INH): markedly inhibited; growth of strain mc^2155 (M. smegmatis; 10 μg per ml INH): markedly inhibited

What does the source list for `CN(CCCNC(=O)c1ccc2c(c1)N(Cc1cccc(Cl)c1)C(=O)c1ccccc1[S+]2[O-])C1CCCCC1` (centres unmarked) [NTF1836]?
GlcN-Ins content [1]: twice the normal level; growth inhibition, in words [2]: inhibitory; MIC ([2]; ATCC29212, Todd Hewitt, n = 3): 64 µg/mL (≈ 113 µM); GlcN-Ins ([3]; 20 uM): 2.77 ± 0.09 nmoles/10^9 bacteria; GlcN-Ins/mycothiol ([3]; 20 uM): 0.09; mycothiol ([3]; 20 uM): 27.8 ± 2.5 nmoles/10^9 bacteria; GlcN-Ins ([3]; 30 uM): 3.49 ± 0.10 nmoles/10^9 bacteria; GlcN-Ins/mycothiol ([3]; 30 uM): 0.18; mycothiol ([3]; 30 uM): 19.1 ± 2.5 nmoles/10^9 bacteria; GlcN-Ins ([3]; 50 uM): 4.28 nmoles/10^9 bacteria; GlcN-Ins/mycothiol ([3]; 50 uM): 0.428; mycothiol ([3]; 50 uM): 10.0 nmoles/10^9 bacteria; GlcN-Ins ([3]; 75 uM): 4.22 nmoles/10^9 bacteria; GlcN-Ins/mycothiol ([3]; 75 uM): 1.21; mycothiol ([3]; 75 uM): 3.5 nmoles/10^9 bacteria; growth inhibition, in words ([4]; M. smegmatis): inhibitory; MIC ([4]; Mycolicibacterium smegmatis, ATCC700084|MC^2155, Middlebrook 7H9 + 1% glucose, n = 3): 16 µg/mL; OD600 (M. tuberculosis; 20 uM): 1.304 ± 0.014; OD600 (M. tuberculosis; 30 uM): 0.600 ± 0.049; OD600 (M. tuberculosis; 50 uM): 0.271; OD600 (M. tuberculosis; 75 uM): 0.12; IC50 (M. tuberculosis; Mycobacterium tuberculosis, 168 h, 7 days, by optical density and by plate counts of viable bacteria, read-out: IC50 for growth inhibition of M. tuberculosis): 20 to 30 µM; MIC (Staphylococcus aureus; ATCC25923, Staphylococcus aureus ATCC 25923, TSB): 128 µg/mL (≈ 227 µM); growth inhibition, in words (Staphylococcus aureus; Staphylococcus aureus): inhibitory; MIC (Staphylococcus aureus; Staphylococcus aureus RN450, TSB): 64 µg/mL (≈ 113 µM); growth rate (M. smegmatis mc^2155; 30 μM): half the normal rate; growth (M. smegmatis mc^2155; 40 μM, after 8 h): completely inhibited

Source: US20100022509A1, “Inhibitors of MshC and Homologs Thereof, and Methods of Identifying Same” (priority 2006, published 2010)
